Data published in BindingDB's records for doi:10.1016/j.bmc.2017.05.049 (Peking University, 2017).

Tests used:
[1] = Inhibition of trypsin-like activity of 20S proteasome in human HL60 cells using Z-LRRaminoluciferin as substrate pretreated for 2 hrs followed by substrate addition by […] assay
[2] = Inhibition of PGPH-like activity of 20S proteasome in human HL60 cells using Z-nLPnLDaminoluciferin as substrate pretreated for 2 hrs followed by substrate addition by […] assay

IC50 [1]: 1.66 µM
IC50 [2]: 1.25 µM
SMILES: CC(C)C[C@H](NC(=O)OCc1ccccc1)C(=O)N[C@@H](Cc1ccc2ccccc2c1)C(=O)N1CCC[C@H]1B(O)O
